Reference: patent publication US10947237B2, “Antimicrobial compounds and methods of making and using the same” (BIOVERSYS AG, priority 2015, dated 2021)

Key:
[1] = test system: Eschericia coli (E. Coli) strain ATCC25922; assay: standard microdilution assay, minimum inhibitory concentration (MIC); type: cell-based; conditions: Escherichia coli
In short: (§1)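 MICs were determined by broth microdilution per CLSI protocols (M7-A8, M100-S20), with reference strains run for quality control. Tested strains were E. coli ATCC25922 and S. aureus 11540. Activity was scored +/− against a 16 µg/mL cutoff.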

[2] = test system: Staphylococcus aureus (S. aureus) 11540 strain; assay: as above; type: cell-based
In short: as §1

Row | SMILES | MIC ([1]; Table 2, strain ATCC25922) [µg/mL] | MIC ([2]; Table 2, 11540 strain) [µg/mL] | MIC ([1]; ATCC25922, Table 2a) [µg/mL] | MIC ([2]; Table 2a) [µg/mL]
1 | C[C@H](N)CCCc1cc(Cl)c(F)c(-c2cc3cn(-c4ccc(CN[C@H](CCNC(=N)N)CNc5ccccn5)cc4)c(=O)nc3[nH]2)c1 [Compound 21] | ≤ 16 | ≤ 16 | – | –
2 | O=c1nc2[nH]c(C3CCNC3)cc2cn1-c1ccc([C@@H]2CCC[C@@H](CCc3ncc[nH]3)N2)cc1 (stereo partly shown) [Compound 130] | ≤ 16 | > 16 | – | –
3 | CC1=NCC[C@@H]2CCC[C@@H](c3ccc(-n4cc5cc(C6CCNC6)[nH]c5nc4=O)cc3)N12 (stereo partly shown) [Compound 116] | > 16 | > 16 | – | –
4 | CCNC[C@@H](CCNC(=N)N)NCc1ccc(-n2cc3cc(-c4cc(CCC[C@H](C)N)cc(Cl)c4F)[nH]c3nc2=O)cc1 [Compound 30] | ≤ 16 | ≤ 16 | – | –
5 | N=C(N)NCC[C@H](CNC(=N)N)OCc1ccc(-n2cc3cc(C4CCNC4)[nH]c3nc2=O)cc1 (stereo partly shown) [Compound 129] | ≤ 16 | ≤ 16 | – | –
6 | C[C@H](N)CCCc1cc(Cl)c(F)c(-c2cc3cn(-c4ccc([C@H]5C[C@H](CCNC(=N)N)C[C@H](CN)O5)cc4)c(=O)nc3[nH]2)c1 [Compound 96] | ≤ 16 | ≤ 16 | – | –
7 | C[C@H](N)CCCc1cc(Cl)c(F)c(-c2cc3cn(-c4ccc(CN[C@H](CCNC(=N)N)CS(N)(=O)=O)cc4)c(=O)nc3[nH]2)c1 [Compound 15] | ≤ 16 | ≤ 16 | – | –
8 | Cc1ccnc(NC[C@@H](CCNC(=N)N)NCc2ccc(-n3cc4cc(-c5cc(CCC[C@H](C)N)cc(Cl)c5F)[nH]c4nc3=O)cc2)c1 [Compound 14] | ≤ 16 | ≤ 16 | – | –
9 | C[C@H](N)CCCc1cc(Cl)c(F)c(-c2cc3cn(-c4ccc([C@@H]5CCC[C@@H](CCNc6ncccn6)N5)cc4)c(=O)nc3[nH]2)c1 [Compound 12] | > 16 | > 16 | – | –
10 | N=C(N)NCC[C@H](CNc1ccccn1)OCc1ccc(-n2cc3cc(CCNC4CCNCC4)[nH]c3nc2=O)cc1 [Compound 105] | > 16 | > 16 | – | –
11 | COC[C@H](N)CCCc1cc(OC(F)(F)F)c(F)c(-c2cc3cn(-c4ccc(CO[C@H](CCNC(C)=N)CNC(C)=N)cc4)c(=O)nc3[nH]2)c1 [Compound 161] | – | – | ≤ 16 | ≤ 16
12 | Cc1ccncc1NC[C@@H](CCNC(=N)N)NCc1ccc(-n2cc3cc(-c4cc(CCC[C@H](C)N)cc(Cl)c4F)[nH]c3nc2=O)cc1 [Compound 65] | ≤ 16 | ≤ 16 | – | –
13 | C[C@H](N)CCCc1cc(Cl)c(F)c(-c2cc3cn(-c4ccc([C@@H]5C[C@H](Nc6nccs6)C[C@@H](CCNC(=N)N)O5)cc4)c(=O)nc3[nH]2)c1 [Compound 108] | ≤ 16 | ≤ 16 | – | –
14 | CC(=N)NC[C@@H](CCNC(=N)N)OCc1ccc(-n2cc3cc(-c4cc(CCC[C@H](C)N)cc(Cl)c4F)[nH]c3nc2=O)cc1 [Compound 168] | – | – | ≤ 16 | ≤ 16
15 | C[C@@H](CCNC(=N)N)OCc1ccc(-n2cc3cc(CCNC4CCNCC4)[nH]c3nc2=O)cc1 [Compound 112] | > 16 | > 16 | – | –
16 | C[C@H](N)CCCc1cc(Cl)c(F)c(-c2cc3cn(-c4ccc(CO[C@@H](CO)CCNC(=N)N)cc4)c(=O)nc3[nH]2)c1 [Compound 71] | ≤ 16 | ≤ 16 | – | –
17 | CC(=N)NCC[C@@H]1C[C@H](CN)O[C@@H](c2ccc(-n3cc4cc(-c5cc(CCC[C@H](C)N)cc(Cl)c5F)[nH]c4nc3=O)cc2)C1 [Compound 97] | ≤ 16 | ≤ 16 | – | –
18 | C[C@H](N)CCCc1cc(Cl)c(F)c(-c2cc3cn(-c4ccc([C@H]5CC(NC6=NCCN6)C[C@H](CCNC6=NCCN6)O5)cc4)c(=O)nc3[nH]2)c1 (stereo partly shown) [Compound 138] | ≤ 16 | ≤ 16 | – | –
19 | C[C@H](NCCCNC(=N)N)c1ccc(-n2cc3cc(-c4cc([C@@H]5CC[C@@H](CN)O5)cc(Cl)c4F)[nH]c3nc2=O)cc1 [Compound 148] | ≤ 16 | ≤ 16 | – | –
20 | C=C[C@H]1C[C@@H](CCNC(=N)N)O[C@H](c2ccc(-n3cc4cc(-c5cc(CCC[C@H](C)N)cc(Cl)c5F)[nH]c4nc3=O)cc2)C1 [Compound 78] | ≤ 16 | ≤ 16 | – | –
